How the values were obtained:
Experiment in all cases: Ba/F3 drug screening, Cell Titer Glo, IC50 Mut/WT
Format in all cases: cell-based
EGFR E709A G719S = target: T1, EGFR E709A G719S (Homo sapiens, UniProt P00533, E709A/G719S); conditions: Ba/F3 cells, EGFR E709A G719S (PACC), Mut/WT
T1 construct: expressed in transfected cells; host or cells: Ba/F3

EGFR S720P = target: T2, EGFR S720P (Homo sapiens, UniProt P00533, S720P); conditions: Classical-Like, 72 hours
T2 construct: expressed in transfected cells; host or cells: Ba/F3 cells, retroviral pBabe-Puro vector (vector made by GeneScript from EGFR WT)

EGFR L858R S784F = target: T3, EGFR L858R S784F (Homo sapiens, UniProt P00533, L858R/S784F); conditions: Classical-Like, 72 hours
T3 construct: expressed in transfected cells; host or cells: Ba/F3 cells, retroviral pBabe-Puro vector (vector made by GeneScript from EGFR L858R)

EGFR L858R T790M L792H = target: T4, EGFR L858R T790M L792H (Homo sapiens, UniProt P00533, L792H/L858R/T790M); conditions: T790M-like-3S, 72 hours
T4 construct: expressed in transfected cells; host or cells: Ba/F3
Procedure: (§1) Data represent the ratio of the IC50 value for a given TKI for cells with a T790M-like-3S EGFR mutation to the IC50 value for cells with wildtype EGFR.
(§2) Ba/F3 cell generation, drug screening, and IC50 approximations. Ba/F3 cells were obtained as a gift from Dr. Gordon Mills (MD Anderson Cancer Center), and maintained in RPMI (Sigma) containing 10% FBS, 1% penicillin/streptomycin, and 10 ng/ml recombinant mIL-3 (R&D Biosystems). To establish stable Ba/F3 cell lines, Ba/F3 cells were transduced with retroviruses containing mutant EGFR plasmids for 12-24 hours.
(§3) After 48-72 hours of transduction, 2 μg/ml puromycin (Invitrogen) was added to Ba/F3 cell lines in complete RPMI. To select for EGFR positive cell lines, cells were stained with PE-EGFR (Biolegend) and sorted by FACS. After sorting, EGFR positive cells were maintained in RPMI containing 10% FBS, 1% penicillin/streptomycin, and 1 ng/ml EGF to support cell viability. Drug screening was performed as previously described^41,42. Shortly, cells were plated in 384-well plates (Greiner Bio-One) at 2000-3000 cells per well in technical triplicate. Seven different concentrations of TKIs or DMSO vehicle were added to reach a final volume of 40 μL per well. After 72 hours, 11 μL of Cell Titer Glo (Promega) was added to each well. Plates were incubated for a minimum of 10 minutes, and bioluminescence was determined using a FLUOstar OPTIMA plate reader (BMG LABTECH). Raw bioluminescence values were normalized to DMSO control treated cells, and values were plotted in GraphPad Prism. […] Drug screens were performed in technical triplicate on each plate and either duplicate or triplicate biological replicates.

EGFR H773insNPH = target: T5, EGFR H773insNPH (Homo sapiens, UniProt P00533, INS773NPH); conditions: Ex20, 72 hours
T5 construct: expressed in transfected cells; host or cells: Ba/F3 cells, retroviral pBabe-Puro vector

EGFR Ex19del T790M C797S = target: T6, EGFR Ex19del T790M C797S (Homo sapiens, UniProt P00533, C797S/DEL746-750/T790M); conditions: T790M-like-3R, 72 hours
T6 construct: expressed in transfected cells; host or cells: Ba/F3

EGFR N771dupN G724S = target: T7, EGFR N771dupN G724S (Homo sapiens, UniProt P00533, DUP771-771/G724S); conditions: Ex20, 72 hours
T7 construct: expressed in transfected cells; host or cells: Ba/F3 cells, retroviral pBabe-Puro vector (vector made by GeneScript from EGFR G724S, c.2313_2314insAAC)
Procedure: (§4) Data represent the ratio of the IC50 value for a given TKI for cells with an ex20ins EGFR mutation to the IC50 value for cells with wildtype EGFR.
as §2
(§5) After 48-72 hours of transduction, 2 μg/ml puromycin (Invitrogen) was added to Ba/F3 cell lines in complete RPMI. To select for EGFR positive cell lines, cells were stained with PE-EGFR (Biolegend) and sorted by FACS. After sorting, EGFR positive cells were maintained in RPMI containing 10% FBS, 1% penicillin/streptomycin, and 1 ng/ml EGF to support cell viability. Drug screening was performed as previously described^41,42. Shortly, cells were plated in 384-well plates (Greiner Bio-One) at 2000-3000 cells per well in technical triplicate. Seven different concentrations of TKIs or DMSO vehicle were added to reach a final volume of 40 μL per well. After 72 hours, 11 μL of Cell Titer Glo (Promega) was added to each well. Plates were incubated for a minimum of 10 minutes, and bioluminescence was determined using a FLUOstar OPTIMA plate reader (BMG LABTECH). Raw bioluminescence values were normalized to DMSO control treated cells, and values were plotted in GraphPad Prism. […] Drug screens were performed in technical triplicate on each plate and either duplicate or triplicate biological replicates. […] Statistical differences between groups were determined by ANOVA as described in the figure legends.

EGFR E709A = target: T8, EGFR E709A (Homo sapiens, UniProt P00533, E709A); conditions: Ba/F3 cells, EGFR E709A (PACC), Mut/WT
T8 construct: expressed in transfected cells; host or cells: Ba/F3
Procedure: Data represent the ratio of the IC50 value for a given TKI for cells with a PACC EGFR mutation to the IC50 value for cells with wildtype EGFR.
as §2, §3

EGFR D761N = target: T9, EGFR D761N (Homo sapiens, UniProt P00533, D761N); conditions: Classical-Like, 72 hours
T9 construct: expressed in transfected cells; host or cells: Ba/F3 cells, retroviral pBabe-Puro vector

EGFR L858R L718Q = target: T10, EGFR L858R L718Q (Homo sapiens, UniProt P00533, L718Q/L858R); conditions: Ba/F3 cells, EGFR L858R L718Q (PACC), Mut/WT
T10 construct: host or cells: Ba/F3

EGFR Ex19del L718Q = target: T11, EGFR Ex19del L718Q (Homo sapiens, UniProt P00533, DEL746-750/L718Q); conditions: Ba/F3 cells, EGFR Ex19del L718Q (PACC), Mut/WT
T11 construct: expressed in transfected cells; host or cells: Ba/F3

EGFR Ex19del T790M L718V = target: T12, EGFR Ex19del T790M L718V (Homo sapiens, UniProt P00533, DEL746-750/L718V/T790M); conditions: T790M-like-3S, 72 hours
T12 construct: expressed in transfected cells; host or cells: Ba/F3

EGFR G719S T790M = target: T13, EGFR G719S T790M (Homo sapiens, UniProt P00533, G719S/T790M); conditions: T790M-like-3S, 72 hours
T13 construct: expressed in transfected cells; host or cells: Ba/F3

EGFR S768dupSVD = target: T14, EGFR S768dupSVD (Homo sapiens, UniProt P00533, DUP768-770); conditions: Ex20, 72 hours
T14 construct: expressed in transfected cells; host or cells: Ba/F3 cells, retroviral pBabe-Puro vector
Procedure: as §4, §2, §5

EGFR A763insFQEA = target: T15, EGFR A763insFQEA (Homo sapiens, UniProt P00533, INS763FQEA); conditions: Classical-Like, 72 hours
T15 construct: expressed in transfected cells; host or cells: Ba/F3 cells, retroviral pBabe-Puro vector

EGFR Ex19del G796S = target: T16, EGFR Ex19del G796S (Homo sapiens, UniProt P00533, DEL746-750/G796S); conditions: Ba/F3 cells, EGFR Ex19del G796S (PACC), Mut/WT
T16 construct: expressed in transfected cells; host or cells: Ba/F3

EGFR V774M = target: T17, EGFR V774M (Homo sapiens, UniProt P00533, V774M); conditions: Ba/F3 cells, EGFR V774M (PACC), Mut/WT
T17 construct: host or cells: Ba/F3

EGFR E709K G719S = target: T18, EGFR E709K G719S (Homo sapiens, UniProt P00533, E709K/G719S); conditions: Ba/F3 cells, EGFR E709K G719S (PACC), Mut/WT
T18 construct: expressed in transfected cells; host or cells: Ba/F3

EGFR L858R/T790M/L718Q = target: T19, EGFR L858R/T790M/L718Q (Homo sapiens, UniProt P00533, L718Q/L858R/T790M); conditions: T790M-like-3R, 72 hours
T19 construct: expressed in transfected cells; host or cells: Ba/F3

EGFR Ex19del/T790M/G724S = target: T20, EGFR Ex19del/T790M/G724S (Homo sapiens, UniProt P00533, DEL746-750/G724S/T790M); conditions: T790M-like-3S, 72 hours
T20 construct: expressed in transfected cells; host or cells: Ba/F3
Procedure: as §1, §2, §3

EGFR T790M = target: T21, EGFR T790M (Homo sapiens, UniProt P00533, T790M); conditions: T790M-like-3S, 72 hours
T21 construct: expressed in transfected cells; host or cells: Ba/F3

EGFR Ex19del/T790M/L792H = target: T22, EGFR Ex19del/T790M/L792H (Homo sapiens, UniProt P00533, DEL746-750/L792H/T790M); conditions: T790M-like-3R, 72 hours
T22 construct: expressed in transfected cells; host or cells: Ba/F3

EGFR N771dupN = target: T23, EGFR N771dupN (Homo sapiens, UniProt P00533, DUP771-771); conditions: Ex20, 72 hours
T23 construct: expressed in transfected cells; host or cells: Ba/F3 cells, retroviral pBabe-Puro vector

EGFR L833F = target: T24, EGFR L833F (Homo sapiens, UniProt P00533, L833F); conditions: Classical-Like, 72 hours
T24 construct: expressed in transfected cells; host or cells: Ba/F3 cells, retroviral pBabe-Puro vector

EGFR Ex19del T790M = target: T25, EGFR Ex19del T790M (Homo sapiens, UniProt P00533, DEL746-750/T790M); conditions: T790M-like-3S, 72 hours
T25 construct: expressed in transfected cells; host or cells: Ba/F3

EGFR G719A T790M = target: T26, EGFR G719A T790M (Homo sapiens, UniProt P00533, G719A/T790M); conditions: T790M-like-3S, 72 hours
T26 construct: expressed in transfected cells; host or cells: Ba/F3
Procedure: as §1, §2, §3

ratio of the IC50 value for cells with a PACC EGFR mutation to the IC50 value for cells with wildtype EGFR (EGFR E709A G719S): 0.797
ratio of IC50 for cells with mutant EGFR to IC50 for cells with wildtype EGFR (Mut/WT) (EGFR S720P): 0.009841
ratio of IC50 for cells with mutant EGFR to IC50 for cells with wildtype EGFR (Mut/WT) (EGFR L858R S784F): 0.0429
ratio of IC50 for cells with mutant EGFR to IC50 for cells with wildtype EGFR (Mut/WT) (EGFR L858R T790M L792H): 0.5871
ratio of IC50 for cells with mutant EGFR to IC50 for cells with wildtype EGFR (Mut/WT) (EGFR H773insNPH): 3.997
ratio of IC50 for cells with mutant EGFR to IC50 for cells with wildtype EGFR (Mut/WT) (EGFR Ex19del T790M C797S): 56.35
ratio of IC50 for cells with mutant EGFR to IC50 for cells with wildtype EGFR (Mut/WT) (EGFR N771dupN G724S): 1.826
ratio of the IC50 value for cells with a PACC EGFR mutation to the IC50 value for cells with wildtype EGFR (EGFR E709A): 0.219
ratio of IC50 for cells with mutant EGFR to IC50 for cells with wildtype EGFR (Mut/WT) (EGFR D761N): 0.3285
ratio of the IC50 value for cells with a PACC EGFR mutation to the IC50 value for cells with wildtype EGFR (EGFR L858R L718Q): 1.635
ratio of the IC50 value for cells with a PACC EGFR mutation to the IC50 value for cells with wildtype EGFR (EGFR Ex19del L718Q): 1.487
ratio of IC50 for cells with mutant EGFR to IC50 for cells with wildtype EGFR (Mut/WT) (EGFR Ex19del T790M L718V): 0.7041
ratio of IC50 for cells with mutant EGFR to IC50 for cells with wildtype EGFR (Mut/WT) (EGFR G719S T790M): 0.1839
ratio of IC50 for cells with mutant EGFR to IC50 for cells with wildtype EGFR (Mut/WT) (EGFR S768dupSVD): 1.73
ratio of IC50 for cells with mutant EGFR to IC50 for cells with wildtype EGFR (Mut/WT) (EGFR A763insFQEA): 0.3966
ratio of the IC50 value for cells with a PACC EGFR mutation to the IC50 value for cells with wildtype EGFR (EGFR Ex19del G796S): 0.8807
ratio of the IC50 value for cells with a PACC EGFR mutation to the IC50 value for cells with wildtype EGFR (EGFR V774M): 0.5635
ratio of the IC50 value for cells with a PACC EGFR mutation to the IC50 value for cells with wildtype EGFR (EGFR E709K G719S): 0.7973
ratio of IC50 for cells with mutant EGFR to IC50 for cells with wildtype EGFR (Mut/WT) (EGFR L858R/T790M/L718Q): 29.86
ratio of IC50 for cells with mutant EGFR to IC50 for cells with wildtype EGFR (Mut/WT) (EGFR Ex19del/T790M/G724S): 1.673
ratio of IC50 for cells with mutant EGFR to IC50 for cells with wildtype EGFR (Mut/WT) (EGFR T790M): 1.125
ratio of IC50 for cells with mutant EGFR to IC50 for cells with wildtype EGFR (Mut/WT) (EGFR Ex19del/T790M/L792H): 1.486
ratio of IC50 for cells with mutant EGFR to IC50 for cells with wildtype EGFR (Mut/WT) (EGFR N771dupN): 0.6044
ratio of IC50 for cells with mutant EGFR to IC50 for cells with wildtype EGFR (Mut/WT) (EGFR L833F): 0.7284
ratio of IC50 for cells with mutant EGFR to IC50 for cells with wildtype EGFR (Mut/WT) (EGFR Ex19del T790M): 0.1837
ratio of IC50 for cells with mutant EGFR to IC50 for cells with wildtype EGFR (Mut/WT) (EGFR G719A T790M): 0.1667
Structure (SMILES): C=CC(=O)Nc1cc(Nc2nccc(-c3c[nH]c4ccccc34)n2)c(OC)cc1N(C)CCN(C)C [AZ5104]

Source: patent US20240384350A1, “METHODS OF TREATING CANCER WITH KINASE INHIBITORS” (BOARD OF REGENTS, THE UNIVERSITY OF TEXAS SYSTEM, priority 2021, published 2024)
